Laboratory results from ChEMBL document CHEMBL1149385, “A selective estrogen receptor modulator for the treatment of hot flushes” (J Med Chem, 2006).
pKi: −log10 of the molar value. Activity calls are given as the source filed them. The rule behind the calls is not given here.

Experiments:
Estrogen receptor [1] = target: T1, Estrogen receptor (Homo sapiens, UniProt Q92731+P03372); assay: Antagonist effect on Ishikawa uterine cancer cell line in presence of 17-beta-estradiol; type: functional, cell-based
Rattus norvegicus [2] = assay: Inhibition of estrogen-induced effect on uterine weight in orally dosed Sprague-Dawley rat; type: functional
Estrogen receptor beta = Estrogen receptor beta (Homo sapiens, UniProt Q92731); assay: Displacement of [3H]17beta-estradiol from ERbeta
Estrogen receptor [3] = target: T2, Estrogen receptor (Homo sapiens, UniProt P03372); assay: Displacement of [3H]17beta-estradiol from ERalpha
T2 sequence (P03372 whole entry): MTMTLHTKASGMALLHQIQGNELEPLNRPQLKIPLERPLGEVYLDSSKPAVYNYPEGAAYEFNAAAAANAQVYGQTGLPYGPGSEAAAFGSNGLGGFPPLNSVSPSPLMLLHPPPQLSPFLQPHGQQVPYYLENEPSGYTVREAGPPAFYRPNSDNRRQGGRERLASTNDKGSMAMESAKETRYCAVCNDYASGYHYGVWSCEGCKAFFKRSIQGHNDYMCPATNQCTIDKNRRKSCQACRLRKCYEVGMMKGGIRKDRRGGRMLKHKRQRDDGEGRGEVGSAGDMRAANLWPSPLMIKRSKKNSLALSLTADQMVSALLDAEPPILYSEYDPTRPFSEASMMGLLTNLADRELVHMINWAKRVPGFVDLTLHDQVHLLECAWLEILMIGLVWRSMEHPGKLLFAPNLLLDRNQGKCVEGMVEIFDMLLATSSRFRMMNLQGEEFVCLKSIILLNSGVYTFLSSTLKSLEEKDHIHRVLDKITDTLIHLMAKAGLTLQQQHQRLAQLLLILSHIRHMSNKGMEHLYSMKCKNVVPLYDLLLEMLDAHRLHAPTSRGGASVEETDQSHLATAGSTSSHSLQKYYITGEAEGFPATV

Estrogen receptor [4] = target: T1, Estrogen receptor; assay: Antagonist effect on breast adenocarcinoma-derived MCF7 cell line; type: functional, cell-based
Rattus norvegicus [5] = assay: Ability to block ovariectomy-induced bone loss in orally dosed Sprague-Dawley rat; type: functional, organism-based
Rattus norvegicus [6] = assay: Eosinophil peroxidase activity in ovariectomized orally dosed Sprague-Dawley rat; type: functional, organism-based; settings: filed as agonist
Rattus norvegicus [7] = assay: Efficacy against hot flush in morphine dependent ovariectomized orally dosed Sprague-Dawley rat model; type: functional, organism-based
Rattus norvegicus [8] = assay: Ability to reduce serum cholesterol level in ovariectomized orally dosed Sprague-Dawley rat at 0.01 mg/kg; type: functional; design: scale not given: the % may be the effect or the level left; settings: route oral

Sequence of Estrogen receptor beta (Q92731 whole entry): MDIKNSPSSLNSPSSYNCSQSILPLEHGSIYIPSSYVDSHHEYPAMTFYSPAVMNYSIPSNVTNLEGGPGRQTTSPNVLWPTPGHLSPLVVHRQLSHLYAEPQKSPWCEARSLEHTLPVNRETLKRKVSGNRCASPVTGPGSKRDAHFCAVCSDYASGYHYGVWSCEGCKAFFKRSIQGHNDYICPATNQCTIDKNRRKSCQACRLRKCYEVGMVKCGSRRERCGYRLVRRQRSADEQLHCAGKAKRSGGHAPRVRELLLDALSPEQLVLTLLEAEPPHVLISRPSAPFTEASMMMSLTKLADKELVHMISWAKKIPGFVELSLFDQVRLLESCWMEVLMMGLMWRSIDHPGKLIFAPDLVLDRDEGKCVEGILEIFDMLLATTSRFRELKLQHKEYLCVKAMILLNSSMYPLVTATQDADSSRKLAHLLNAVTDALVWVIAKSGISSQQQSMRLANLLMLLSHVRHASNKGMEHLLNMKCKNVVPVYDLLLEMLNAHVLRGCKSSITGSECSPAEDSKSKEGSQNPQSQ

Row | Compound | IC50 (Estrogen receptor [1]) [nM] | ED50 (Rattus norvegicus [2]) | pKi (Estrogen receptor beta) | pKi (Estrogen receptor [3]) | IC50 (Estrogen receptor [4]) [nM] | Activity (Rattus norvegicus [5]) | Activity (Rattus norvegicus [6]) | ED50 (Rattus norvegicus [2]; po) [mg/kg] | Efficacy (Rattus norvegicus [7]) | Activity (Rattus norvegicus [8]) [%]
1 | Cl.Oc1ccc2c3c(ccc2c1)-c1cc(F)cc(F)c1O[C@H]3c1ccc(OCCN2CCCCC2)cc1 | 430 | inactive | 7.27 | 8.24 | 330 | – | – | – | – | –
2 | O=C(c1ccc(OCCN2CCCC2)cc1)c1c(-c2ccc(O)cc2)sc2cc(O)ccc12 | – | – | – | – | – | Active | Antagonist | – | – | –
3 | Cl.Oc1ccc2c3c(ccc2c1)-c1cc(F)cc(F)c1O[C@@H]3c1ccc(OCCN2CCCCC2)cc1 | 5.3 | – | 9.30 | 9.52 | 1.4 | Active | Antagonist | 0.03 | Dose-dependent effect | 50
